“Also recorded” adds a separate entry of the source.
Key:
Type in all cases: physicochemical
[1] = Volatilization measurements (ammonia release, 2 L diffusion kit, Draeger tube); conditions: YaraVera Amidas product comprising 462 ppm nBTPT, treated with stabilizer (FIG. 1, Table 1)
From the text: Through the lid, a […] tube is placed for the measurement of vol % ammonia. The […] tube turns from yellow to bleu/purple when ammonia is absorbed by the tube. The amount of vol % ammonia released can be followed in time. Experiment 1 defines the problem.

[2] = nBTPT stability on YaraVera Amidas (UAS) product during storage, HPLC analysis of nBTPT content
Procedure: For lab scale experiments, 1.2 kg of solid fertilizer material was added to a lab scale drum. […] A residence time of 10 minutes was applied and the rotating speed of the drum was consequently the same in each experiment. […] Before use, the moisture-repellent coating was preheated to 80° C. Larger scale experiments with amounts up to 40 kg of fertilizer material were performed in a concrete mixer. The samples were stored under several conditions, dependent on the type of samples: • Bagged at room temperature (18-25° C.) • Bagged at 40° C. • Open to air at room temperature (18-25° C.) […]

pH of MgSO4 grades = assay: pH of MgSO4 grades

For `[O]=[Ca]` [CaO, calcium oxide], the Ammonia release [1] was “producing ammonia”.

In the case of `O=S(=O)([O-])[O-].[Ca+2]` [CaSO4], the Ammonia release [1] is reported as “no ammonia release”.

With `[O]=[Mg]` [MgO, magnesium oxide, reference compound] the “Stability of nBTPT (stabilizing effect)” value ([2]; YaraVera Amidas with 462 ppm nBTPT, MgSO4/MgO combinations (FIG. 4)) was “more effective than CaO” and the Ammonia release [1] was “producing ammonia”.

Compound `O=S(=O)([O-])[O-].[Mg+2]` [MgSO4 99.5%] has a pH (pH of MgSO4 grades) of 8.5.

In the case of `O=S(=O)([O-])[O-].[Mg+2]` [MgSO4 99.999%], the pH (pH of MgSO4 grades) is reported as 6.1.

In the case of `O=S(=O)([O-])[O-].[Mg+2]` [MgSO4, magnesium sulphate], the “Stability of nBTPT (stabilizing effect)” value ([2]; UAS with 462 ppm nBTPT, open to air at room temperature 40 days (FIG. 2A) and in bags at 40° C. 8 days (FIG. 2B)) is reported as “comparable with the effect of the prior art compound (CaO)”, the Stabilizing effect ([2]; more than 1 weight % magnesium sulphate in the composition) is reported as “did not produce a proportionally better stabilizing effect” and the Ammonia release [1] is reported as “no ammonia release; also recorded: no ammonia is generated”.

In the case of `O=S(=O)([O-])[O-].[Na+].[Na+]` [Na2SO4, reference compound], the “Stability of nBTPT (stabilizing effect)” value ([2]; YaraVera Amidas with 462 ppm nBTPT, open plastic containers at room temperature for 21 days (FIG. 3)) is reported as “negative effect on the stability of nBTPT”.

Source: US20210261475A1, “UREA-BASED COMPOSITION COMPRISING ELEMENTAL SULPHUR AND METHOD FOR THE MANUFACTURE THEREOF” (YARA INTERNATIONAL ASA, priority 2018, published 2021)
